In patent publication US7507739B2, “6-[(substituted)phenyl]triazolopyrimidines as anticancer agents” (Wyeth, priority 2003, dated 2009):
Marks after values point to notes of the source that are not given here.

Columns and labels:
Format in all cases: in vivo, athymic mice
[1] = system: H157 Human Non-Small Cell Lung Carcinoma; assay: Human tumor xenograft test, H157; conditions: for T/C on day 0 / T/C on day 7 / T/C on day 11 / T/C on day 14: days 0, 6
Experimental: (§1) The ability of compounds of this invention to inhibit tumor growth in animals is studied in the athymic mouse xenograft standard pharmacological test. Female nu/nu mice in an outbred albino background are obtained from Charles River Laboratories (Wilmington, Mass.). Animals are injected subcutaneously on the flank with the desired tumor cell suspension. Several days later, mice with tumors of approximately 150 mm^3 are selected from those injected (staged) and randomly distributed into groups of 5-10. The day of staging is called day 0. Compounds of the invention, usually formulated in saline (exceptions are noted in tables), are administered to animals by intravenous injection or oral gavage on various schedules starting on day 0 or 1, as noted in the tables. The control group in each experiment is dosed with vehicle on the same schedule. Tumor size is measured every 3-7 days with calipers in two orthogonal dimensions, and tumor volume is calculated from the formula volume=[(length×width^2)/2].
(§2) Tumor/Control (T/C) is obtained by dividing the mean tumor volume of the treated group by the mean tumor volume of the control group on each measurement day. A treatment dose is defined as active if it produced a statistically significant T/C of 0.50 or less. A p value≦0.05, determined by one-side Student's t-test, is required for statistical significance. A treatment dose is defined as toxic if more than 10% of the animals died from a compound-related toxicity.

[2] = system: A549 Human Non-Small Cell Lung Carcinoma; assay: Human tumor xenograft test, A549; conditions: for T/C on day 0 / T/C on day 7 / T/C on day 14 / T/C on day 21 / T/C on day 27 / T/C on day 35: days 0, 6, 13, 20
Experimental: as §1, §2

[3] = system: HT-29 Human Colon Carcinoma; assay: Human tumor xenograft test, HT-29
Experimental: as §1, §2

[4] = system: U87-MG Human Glioblastoma; assay: Human tumor xenograft test, U87-MG; conditions: U87-MG
Experimental: as §1, §2

[5] = system: HCT-15 Human Colon Carcinoma; assay: Human tumor xenograft test, HCT-15; conditions: for T/C on day 0 / T/C on day 7 / T/C on day 13 / T/C on day 20: days 1, 8, 15
Experimental: as §1, §2

LOX Human Melanoma = assay: Human tumor xenograft test, LOX; conditions: for tumor growth inhibition (activity call): LOX melanoma; for T/C on day 0 / T/C on day 7 / T/C on day 13: LOX, days 1, 5, 9, 13
Experimental: as §1, §2

CNCCCOc1cc(F)c(-c2c(Cl)nc3ncnn3c2N[C@@H](C)C(F)(F)F)c(F)c1.Cl [Example 2a, 5-Chloro-6-{2,6-difluoro-4-[3-(methylamino)propoxy]phenyl}-N-[(1S)-2,2,2-trifluoro-1-methylethyl][1,2,4]triazolo[1,5-a]pyrimidin-7-amine hydrogen chloride]
T/C on day 0 ([1]; H157, 7.5 mg/kg IV): 1.04 | T/C on day 7 ([1]; H157, 7.5 mg/kg IV): 0.54** | T/C on day 11 ([1]; H157, 7.5 mg/kg IV): 0.42** | T/C on day 14 ([1]; H157, 7.5 mg/kg IV): 0.45** | T/C on day 0 ([1]; H157, 15 mg/kg IV): 1.02 | T/C on day 7 ([1]; H157, 15 mg/kg IV): 0.55* | T/C on day 11 ([1]; H157, 15 mg/kg IV): 0.44* | T/C on day 14 ([1]; H157, 15 mg/kg IV): 0.42** | T/C on day 0 ([1]; H157, 25 mg/kg IV): 1.03 | T/C on day 7 ([1]; H157, 25 mg/kg IV): 0.62* | T/C on day 11 ([1]; H157, 25 mg/kg IV): 0.29** | T/C on day 14 ([1]; H157, 25 mg/kg IV): 0.30** | tumor growth inhibition (activity call) ([1]; H157 NSCLC, 25, 15 and 7.5 mg/kg intravenously on days 0 and 6): inhibited tumor growth | T/C on day 0 ([2]; A549, 15 mg/kg IV): 1.01 | T/C on day 7 ([2]; A549, 15 mg/kg IV): 0.75* | T/C on day 14 ([2]; A549, 15 mg/kg IV): 0.61** | T/C on day 21 ([2]; A549, 15 mg/kg IV): 0.83 | T/C on day 27 ([2]; A549, 15 mg/kg IV): 0.75 | T/C on day 35 ([2]; A549, 15 mg/kg IV): 0.76 | tumor growth inhibition (activity call) ([2]; A549, 15 mg/kg intravenously on days 0, 6, 13, and 20): not at 15 mg/kg | T/C on day 0 ([2]; A549, 20 mg/kg IV): 0.97 | T/C on day 7 ([2]; A549, 20 mg/kg IV): 0.79 | T/C on day 14 ([2]; A549, 20 mg/kg IV): 0.55** | T/C on day 21 ([2]; A549, 20 mg/kg IV): 0.59* | T/C on day 27 ([2]; A549, 20 mg/kg IV): 0.50* | T/C on day 35 ([2]; A549, 20 mg/kg IV): 0.49* | T/C on day 0 ([2]; A549, 25 mg/kg IV): 0.99 | T/C on day 7 ([2]; A549, 25 mg/kg IV): 0.72* | T/C on day 14 ([2]; A549, 25 mg/kg IV): 0.51** | T/C on day 21 ([2]; A549, 25 mg/kg IV): 0.57* | T/C on day 27 ([2]; A549, 25 mg/kg IV): 0.48* | T/C on day 35 ([2]; A549, 25 mg/kg IV): 0.44* | tumor growth inhibition (activity call) ([2]; A549, 25 and 20 mg/kg intravenously on days 0, 6, 13, and 20): inhibited the growth | T/C on day 0 ([3]; HT-29, 25 mg/kg IV, days 1, 7): 1.00 | T/C on day 7 ([3]; HT-29, 25 mg/kg IV, days 1, 7): 0.44** | T/C on day 10 ([3]; HT-29, 25 mg/kg IV, days 1, 7): 0.34** | T/C on day 13 ([3]; HT-29, 25 mg/kg IV, days 1, 7): 0.26** | T/C on day 21 ([3]; HT-29, 25 mg/kg IV, days 1, 7): 0.43** | T/C on day 24 ([3]; HT-29, 25 mg/kg IV, days 1, 7): 0.46** | tumor growth inhibition (activity call) ([3]; HT-29, 25 mg/kg intravenously on days 1 and 7): inhibited the growth | tumor growth inhibition (activity call) ([4]; orally single dose on day 0 at 5 or 2.5 mg/kg): not at 5 or 2.5 mg/kg | tumor growth inhibition (activity call) ([4]; orally single dose on day 0 at 30, 20, and 10 mg/kg): inhibited the growth | T/C on day 0 ([5]; HCT-15, 10 mg/kg IV): 1.00 | T/C on day 7 ([5]; HCT-15, 10 mg/kg IV): 0.81 | T/C on day 13 ([5]; HCT-15, 10 mg/kg IV): 1.03 | T/C on day 20 ([5]; HCT-15, 10 mg/kg IV): 0.75 | T/C on day 0 ([5]; HCT-15, 20 mg/kg IV): 1.00 | T/C on day 7 ([5]; HCT-15, 20 mg/kg IV): 0.86 | T/C on day 13 ([5]; HCT-15, 20 mg/kg IV): 0.50* | T/C on day 20 ([5]; HCT-15, 20 mg/kg IV): 0.43* | tumor growth inhibition (activity call) ([5]; HCT-15, 20 mg/kg intravenously on days 1, 8, and 15): active | T/C on day 0 ([5]; HCT-15, 25 mg/kg IV): 1.00 | T/C on day 7 ([5]; HCT-15, 25 mg/kg IV): 0.78 | T/C on day 13 ([5]; HCT-15, 25 mg/kg IV): 0.60 | T/C on day 20 ([5]; HCT-15, 25 mg/kg IV): 0.44 | tumor growth inhibition (activity call) (LOX Human Melanoma; 1 mg/kg intravenously on days 1, 5, 9, and 13): not at 1 mg/kg | tumor growth inhibition (activity call) (LOX Human Melanoma; 6 and 3 mg/kg intravenously on days 1, 5, 9, and 13): active | T/C on day 0 (LOX Human Melanoma; 1 mg/kg IV): 1.00 | T/C on day 7 (LOX Human Melanoma; 1 mg/kg IV): 0.81 | T/C on day 13 (LOX Human Melanoma; 1 mg/kg IV): 0.95 | T/C on day 0 (LOX Human Melanoma; 3 mg/kg IV): 1.00 | T/C on day 7 (LOX Human Melanoma; 3 mg/kg IV): 0.31** | T/C on day 13 (LOX Human Melanoma; 3 mg/kg IV): 0.36 | T/C on day 0 (LOX Human Melanoma; 6 mg/kg IV): 1.00 | T/C on day 7 (LOX Human Melanoma; 6 mg/kg IV): 0.17** | T/C on day 13 (LOX Human Melanoma; 6 mg/kg IV): 0.12**
